Some test systems named below: MDA-MB-231; NCI-H226; TK-10; UACC-257; SF-268; SK-MEL-5; A549; NCI-H23; MOLT-4; HCT-116; OVCAR-3; OVCAR-5; RPMI-8226; HOP-62; UO-31; OVCAR-8; SK-OV-3; SF-295; MDA-MB-435; SN12C.
Holding throughout (experiment): growth of human tumour cells (NCI), 48 h

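Test compounds were applied to cells in 96-well plates for 48 hours at 5 doses. Here, GI50 denotes the concentration required for 50% inhibition of growth.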 Activity calls are given as the source filed them. Rule as the data show it: active = GI50 up to about 1.1 µM and inactive = higher.

Turning to `NC1CCCCC1.O=P(O)(O)C(O)/C=C/c1ccccc1` (stereo not given), the GI50 in the experiment on MDA-MB-231, in the experiment with NCI-H226, with TK-10, with UACC-257, with SF-268 and in the experiment on SK-MEL-5 was > 100 µM (inactive) in each case. Also, the GI50 in the experiment with A549, in the experiment on NCI-H23, in the experiment on MOLT-4, in the experiment on HCT-116, with OVCAR-3 and in the experiment on OVCAR-5 was > 100 µM (inactive) throughout. For the same compound, the GI50 in the experiment on RPMI-8226, with HOP-62, in the experiment on UO-31, in the experiment with OVCAR-8, with SK-OV-3 and in the experiment on SF-295 was > 100 µM (inactive) each time. The GI50 with MDA-MB-435 and in the experiment with SN12C was > 100 µM (inactive) in each case.

Turning to `CCCCCCCCCC(O)CC(=O)c1c(O)cccc1O` (stereo not given), the GI50 is 21.4 µM (inactive) in the experiment on MDA-MB-231; 17.4 µM (inactive) in the experiment on NCI-H226; 21.8 µM (inactive) in the experiment with TK-10; 19.5 µM (inactive) in the experiment on UACC-257; 17.7 µM (inactive) in the experiment with SF-268; 19 µM (inactive) in the experiment with SK-MEL-5. Also, the GI50 is 23.6 µM (inactive) in the experiment on A549; 22 µM (inactive) in the experiment on NCI-H23; 19.5 µM (inactive) with MOLT-4; 20.1 µM (inactive) in the experiment on HCT-116; 21.9 µM (inactive) with OVCAR-3; 18.7 µM (inactive) in the experiment on OVCAR-5. The GI50 is 20.6 µM (inactive) in the experiment on RPMI-8226; 16 µM (inactive) in the experiment on HOP-62; 19.3 µM (inactive) in the experiment on UO-31; 18.8 µM (inactive) in the experiment on OVCAR-8; 20 µM (inactive) in the experiment on SK-OV-3; 19.4 µM (inactive) in the experiment with SF-295. The GI50 is 25.9 µM (inactive) in the experiment on MDA-MB-435 and 31.3 µM (inactive) with SN12C.

For the compound `COc1cc2c(cc1OCc1ccccc1)NC(=S)[C@@H]1CCCN1C2=S`, the GI50 with MDA-MB-231 is 85.3 µM (inactive); in the experiment on NCI-H226 it was 93.5 µM (inactive); with TK-10, > 100 µM (inactive); with UACC-257, > 100 µM (inactive); with SF-268 it was > 100 µM (inactive); in the experiment on SK-MEL-5, 62.8 µM (inactive). In addition, the GI50 was 73.8 µM (inactive) with A549; > 100 µM (inactive) in the experiment with NCI-H23; > 100 µM (inactive) with MOLT-4; > 100 µM (inactive) with HCT-116; 43.1 µM (inactive) in the experiment with OVCAR-3; > 100 µM (inactive) with OVCAR-5. In addition, the GI50 in the experiment with RPMI-8226 was > 100 µM (inactive); in the experiment on HOP-62, 5.85 µM (inactive); with UO-31, > 100 µM (inactive); in the experiment with OVCAR-8, 12.3 µM (inactive); in the experiment on SK-OV-3 it was > 100 µM (inactive); in the experiment with SF-295 it was 37.5 µM (inactive). For the same compound, the GI50 in the experiment on MDA-MB-435 and in the experiment on SN12C was > 100 µM (inactive) each time.

Regarding `CCOC(=O)c1nc2c(nc1C(=O)OCC)C(=O)c1ccccc1C2=O`, the GI50 in the experiment on MDA-MB-231 was 2.16 µM (inactive); in the experiment with NCI-H226, 0.569 µM (active); with TK-10, 2.75 µM (inactive); in the experiment with UACC-257, 0.431 µM (active); in the experiment on SF-268, 0.818 µM (active); with SK-MEL-5, 0.407 µM (active). For the same compound, the GI50 is 0.594 µM (active) in the experiment on A549; 0.31 µM (active) in the experiment on NCI-H23; 1.71 µM (inactive) with MOLT-4; 0.875 µM (active) in the experiment on HCT-116; 0.37 µM (active) with OVCAR-3; 0.562 µM (active) in the experiment on OVCAR-5. For the same compound, the GI50 in the experiment on RPMI-8226 was 0.753 µM (active); with HOP-62 it was 0.618 µM (active); in the experiment with UO-31, 0.333 µM (active); in the experiment with OVCAR-8 it was 1.05 µM (active); in the experiment with SK-OV-3, 1.59 µM (inactive); in the experiment with SF-295, 0.359 µM (active). Also, the GI50 is 0.246 µM (active) in the experiment with MDA-MB-435 and 0.201 µM (active) with SN12C.

As for `NC(=O)NC(=O)c1cccc(NC(=O)CF)c1`, the GI50 with MDA-MB-231 is > 100 µM (inactive); in the experiment on NCI-H226 it was 73.5 µM (inactive); with TK-10 it was > 100 µM (inactive); in the experiment with UACC-257, > 100 µM (inactive); in the experiment on SF-268, > 100 µM (inactive); in the experiment on SK-MEL-5, > 100 µM (inactive). Besides, the GI50 with A549, in the experiment with NCI-H23, with MOLT-4, in the experiment on HCT-116, in the experiment with OVCAR-3 and in the experiment on OVCAR-5 was > 100 µM (inactive) in each case. The GI50 with RPMI-8226 was > 100 µM (inactive); with HOP-62 it was > 100 µM (inactive); in the experiment on UO-31, 31 µM (inactive); in the experiment on OVCAR-8 it was > 100 µM (inactive); in the experiment on SK-OV-3 it was > 100 µM (inactive); with SF-295, > 100 µM (inactive). In addition, the GI50 in the experiment with MDA-MB-435 and in the experiment on SN12C was > 100 µM (inactive) each time.

In the case of `Nc1ccc2c(c1)NC(=O)[C@@H]1CCCN1C2=O`, the GI50 with MDA-MB-231, with NCI-H226, in the experiment with TK-10, with UACC-257, in the experiment on SF-268 and with SK-MEL-5 was > 100 µM (inactive) in each case. Besides, the GI50 in the experiment with A549, in the experiment with NCI-H23, in the experiment on MOLT-4, in the experiment with HCT-116, with OVCAR-3 and in the experiment on OVCAR-5 was > 100 µM (inactive) each time. The GI50 with RPMI-8226, with HOP-62, in the experiment on UO-31, in the experiment with OVCAR-8, in the experiment on SK-OV-3 and in the experiment with SF-295 was > 100 µM (inactive) each time. Also, the GI50 in the experiment on MDA-MB-435 and with SN12C was > 100 µM (inactive) in each case.

`CC[C@H](NC(=O)OC(C)(C)C)C(=O)NCP(=O)(OCc1ccc([N+](=O)[O-])cc1)OCc1ccc([N+](=O)[O-])cc1`: the GI50 in the experiment on MDA-MB-231 is 26.4 µM (inactive); in the experiment with NCI-H226, 39.4 µM (inactive); with TK-10 it was 30.6 µM (inactive); in the experiment on UACC-257 it was 11.9 µM (inactive); in the experiment with SF-268, 40.6 µM (inactive); with SK-MEL-5, 13.5 µM (inactive). The GI50 in the experiment on A549 is 27.7 µM (inactive); in the experiment with NCI-H23, 41.3 µM (inactive); in the experiment on MOLT-4, 21.5 µM (inactive); in the experiment on HCT-116, 27.7 µM (inactive); with OVCAR-3, 11 µM (inactive); in the experiment on OVCAR-5, 48.2 µM (inactive). For the same compound, the GI50 with RPMI-8226 was 27.7 µM (inactive); in the experiment on HOP-62, 38.4 µM (inactive); with UO-31 it was 14.8 µM (inactive); in the experiment with OVCAR-8 it was 30.5 µM (inactive); in the experiment with SK-OV-3, 21.9 µM (inactive); in the experiment with SF-295, 13.7 µM (inactive). The GI50 in the experiment on MDA-MB-435 was 34.9 µM (inactive); in the experiment with SN12C it was 29.1 µM (inactive).

Source of the values: ChEMBL document CHEMBL1201862, “PubChem BioAssay data set” (2004).
